Test results from patent US11220504B2, “Pyrrolo[3,2-d] pyrimidine derivatives for the treatment of viral infections and other diseases” (JANSSEN SCIENCES IRELAND UNLIMITED COMPANY, priority 2012, dated 2022).

Legend:
[1] = target: T1, human TLR7 (Homo sapiens, UniProt Q9NYK1); assay: TLR7 cellular reporter assay (HEK293, NFκB-luc); format: cell-based; details: HEK293 cells transfected with CMV-TLR7 and NFκB-luc, 6 hours incubation; lowest effective concentration
T1 construct: expressed in transfected cells; host or cells: HEK293 cells, transient transfection with CMV-TLR7 plasmid and NFκB-luc plasmid
T1 sequence (Q9NYK1 27-1049): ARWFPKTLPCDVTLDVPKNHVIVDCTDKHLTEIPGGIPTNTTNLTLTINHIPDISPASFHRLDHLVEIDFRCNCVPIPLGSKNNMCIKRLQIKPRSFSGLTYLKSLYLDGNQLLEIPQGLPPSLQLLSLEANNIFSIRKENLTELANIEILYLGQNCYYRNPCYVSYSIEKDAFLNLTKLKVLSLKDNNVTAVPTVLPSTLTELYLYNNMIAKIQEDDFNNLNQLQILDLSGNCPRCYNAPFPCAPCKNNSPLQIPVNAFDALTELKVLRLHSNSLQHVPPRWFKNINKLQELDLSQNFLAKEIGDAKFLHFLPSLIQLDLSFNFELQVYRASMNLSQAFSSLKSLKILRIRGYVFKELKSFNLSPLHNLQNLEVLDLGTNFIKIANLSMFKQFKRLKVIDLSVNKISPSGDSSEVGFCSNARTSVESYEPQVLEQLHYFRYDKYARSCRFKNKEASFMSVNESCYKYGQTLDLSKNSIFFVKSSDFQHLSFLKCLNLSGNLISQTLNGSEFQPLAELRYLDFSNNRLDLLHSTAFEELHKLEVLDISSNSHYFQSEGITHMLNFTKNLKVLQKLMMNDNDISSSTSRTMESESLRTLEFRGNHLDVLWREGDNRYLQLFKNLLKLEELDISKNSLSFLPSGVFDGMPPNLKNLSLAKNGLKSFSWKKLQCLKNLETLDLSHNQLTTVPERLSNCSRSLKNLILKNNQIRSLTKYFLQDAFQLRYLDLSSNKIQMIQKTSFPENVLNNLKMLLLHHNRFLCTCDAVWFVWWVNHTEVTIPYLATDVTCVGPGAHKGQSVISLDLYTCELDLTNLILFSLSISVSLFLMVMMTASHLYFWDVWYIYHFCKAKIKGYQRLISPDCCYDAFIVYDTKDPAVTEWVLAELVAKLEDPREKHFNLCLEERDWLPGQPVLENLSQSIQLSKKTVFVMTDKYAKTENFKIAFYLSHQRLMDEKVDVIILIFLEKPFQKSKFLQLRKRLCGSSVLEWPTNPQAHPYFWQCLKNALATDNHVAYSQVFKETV
In short: (§1)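 HEK293 cells transiently transfected with receptor expression vector plus NFκB-luciferase reporter, exposed to compound (added in 4% DMSO) for 6 hours at 37° C, 5% CO2. Luciferase activity measured by luminescence; dose-response curves from quadruplicate measurements.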

[2] = target: T2, human TLR8 (Homo sapiens, UniProt Q9NR97); assay: TLR8 cellular reporter assay (HEK293, NFκB-luc); format: cell-based; details: HEK293 cells transfected with CMV-TLR8 and NFκB-luc, 6 hours incubation; lowest effective concentration
T2 construct: expressed in transfected cells; host or cells: HEK293 cells, transient transfection with TLR8 plasmid and NFκB-luc plasmid
T2 sequence (Q9NR97 27-1041): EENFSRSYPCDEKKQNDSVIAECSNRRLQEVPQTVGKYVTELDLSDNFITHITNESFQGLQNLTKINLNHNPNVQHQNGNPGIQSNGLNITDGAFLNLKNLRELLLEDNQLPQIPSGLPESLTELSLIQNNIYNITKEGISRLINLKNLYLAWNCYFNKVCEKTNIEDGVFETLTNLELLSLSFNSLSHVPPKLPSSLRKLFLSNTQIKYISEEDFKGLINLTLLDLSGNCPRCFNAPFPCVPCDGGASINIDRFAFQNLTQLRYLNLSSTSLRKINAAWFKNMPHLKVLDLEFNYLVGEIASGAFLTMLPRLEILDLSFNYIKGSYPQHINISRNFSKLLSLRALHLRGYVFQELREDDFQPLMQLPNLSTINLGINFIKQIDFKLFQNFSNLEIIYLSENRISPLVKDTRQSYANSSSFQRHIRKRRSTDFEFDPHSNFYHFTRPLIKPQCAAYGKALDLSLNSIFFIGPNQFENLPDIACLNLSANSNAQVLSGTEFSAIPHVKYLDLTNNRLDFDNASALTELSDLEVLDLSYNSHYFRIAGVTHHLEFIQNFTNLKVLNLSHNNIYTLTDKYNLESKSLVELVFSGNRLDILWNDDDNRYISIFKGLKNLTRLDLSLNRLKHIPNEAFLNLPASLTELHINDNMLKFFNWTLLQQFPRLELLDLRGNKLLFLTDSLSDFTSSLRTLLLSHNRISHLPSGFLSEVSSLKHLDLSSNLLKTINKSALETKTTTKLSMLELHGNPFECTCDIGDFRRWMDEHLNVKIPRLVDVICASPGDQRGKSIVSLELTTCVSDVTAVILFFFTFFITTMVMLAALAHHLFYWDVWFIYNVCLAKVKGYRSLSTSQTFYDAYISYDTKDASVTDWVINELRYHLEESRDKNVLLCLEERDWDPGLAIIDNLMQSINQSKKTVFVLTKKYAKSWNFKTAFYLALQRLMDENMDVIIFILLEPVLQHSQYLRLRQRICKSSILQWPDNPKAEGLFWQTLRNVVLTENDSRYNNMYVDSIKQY
In short: as §1

[3] = tested on: interferon-stimulated responsive elements (ISRE); assay: Activation of ISRE promoter elements by conditioned media from PBMC (HEK-ISREluc); format: cell-based, human; details: conditioned media from PBMC transferred to HEK-ISREluc cells, 24 hours, lowest effective concentration; for minimal effective concentration: Homo sapiens, read-out: PBMC LEC
In short: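 Human PBMCs (≥2 donors, RPMI + 10% human AB serum, 2×10^5 cells/well) incubated overnight with compound; supernatant transferred to HEK293 cells stably carrying pISRE-Luc for 24 h, then luciferase read. LEC = compound concentration on PBMCs giving luciferase signal at least two-fold above assay SD; recombinant IFN-α-2a standard.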

Structure (SMILES)	TLR7 LEC [1] [µM]	TLR8 LEC [2] [µM]	minimal effective concentration [3] [µM]	PBMC LEC [3] [µM]
CCCCNc1nc(N)nc2c(C)cn(Cc3ccccc3)c12 [Compound 54]	1.68	>25	0.9	
CCCCNc1nc(N)nc2ccn(Cc3ncccn3)c12 [Compound 56]	0.99	17.5	0.07	
CCCCNc1nc(N)nc2c(C)cn(Cc3ccccc3)c12 [Compound 58]	0.24	>25		0.90
Nc1nc(NCc2nccs2)c2c(ccn2Cc2ccccc2)n1 [Compound 60]	0.39	>25	0.33	
Nc1nc(NCc2ccccn2)c2c(ccn2Cc2ccccc2)n1 [Compound 61]	1.01	>25	1.95	
CCCCNc1nc(N)nc2ccn(CC3CCC3)c12 [Compound 62]	0.06	0.9934	0.06	
CCCCNc1nc(N)nc2cc(C)n(Cc3ccccc3)c12 [Compound 63]	0.67	>25	0.18	
CCCCNc1nc(N)nc2ccn(Cc3nccc4ccccc34)c12 [Compound 65]	0.1687	>25	0.08	
CCCCNc1nc(N)nc2ccn(CCn3cccc3)c12 [Compound 66]	2.57	3.96	0.91	
CCCCNc1nc(N)nc2ccn(CCN3CCOCC3)c12 [Compound 67]	0.056	6.71	0.04	
CCCCNc1nc(N)nc2ccn(Cc3ccccc3OC)c12 [Compound 69]	0.004	0.71	0.002	
CCCCNc1nc(N)nc2ccn(CC3CCCO3)c12 (stereo not drawn) [Compound 71]	0.32	4.68	0.24	
CCCCNc1nc(N)nc2ccn(Cc3cccs3)c12 [Compound 73]	0.28	>25	0.13	
CCCC(C)Nc1nc(N)nc2ccn(Cc3ccccc3F)c12 (stereo not drawn) [Compound 74]	0.10	>25	0.04	
CCCC(C)Nc1nc(N)nc2ccn(Cc3ccc(OC)cc3)c12 (stereo not drawn) [Compound 75]	0.04	>25	0.04	
CCCC[C@@H](CCO)Nc1nc(N)nc2ccn(Cc3ccccc3F)c12 [Compound 76]	0.01	4.09	0.007	
CCCC[C@@H](CCO)Nc1nc(N)nc2ccn(Cc3ccc(OC)cc3)c12 [Compound 77]	0.008	2.62	0.002	
CCCC[C@@H](CCO)Nc1nc(N)nc2ccn(Cc3ccccc3OC)c12 [Compound 78]	0.0004	0.5577	< 0.0004	
CCCC(C)Nc1nc(N)nc2ccn(Cc3ccccc3OC)c12 (stereo not drawn) [Compound 79]	0.004	0.94	0.001	
CCC[C@@H](CCO)Nc1nc(N)nc2ccn(Cc3ccccc3OC)c12 [Compound 80]	<0.0006	0.689	< 0.0004	
CCC[C@@H](CCO)Nc1nc(N)nc2ccn(Cc3ccccc3F)c12 [Compound 81]	0.01	22.02	0.002	
CCC[C@@H](CCO)Nc1nc(N)nc2ccn(CC3CCC3)c12 [Compound 82]	0.07	0.57	0.01	
CCCCn1ccc2nc(N)nc(NCc3ccccc3)c21 [Compound 83]	1.57	>25	2.3	
CCCC[C@@H](CCO)Nc1nc(N)nc2ccn(CC3CCC3)c12 [Compound 84]	0.04	1.14	0.01	
CCC[C@@H](CCO)Nc1nc(N)nc2ccn(Cc3cscn3)c12 [Compound 85]	0.03	10.14	0.002	
CCCCNc1nc(N)nc2cc(F)n(Cc3ccccc3)c12 [Compound 86]	1.63	>25	0.47	
CCC[C@@H](CCO)Nc1nc(N)nc2ccn(CC3CCCCC3)c12 [Compound 87]	0.01	>25	0.008	
CCCC[C@@H](CCO)Nc1nc(N)nc2ccn(Cc3cscn3)c12 [Compound 88]	0.01	2.46	0.0006	
